The values below come from patent US9770026B2, “Substituted pyrimidine compound and uses thereof” (Shenyang Sinochem Agrochemicals R&D Co., Ltd., priority 2012, dated 2017).

The test system of the first experiment is Diamond back moth. As to the kind of experiment: insecticidal activity against diamond back moth, airbrush spray. The class given is in vivo. The note with it: 100 mg/L. In outline:
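Airbrush leaf-disc spray test: both faces of 2 cm cabbage discs received 0.5 ml of test solution at 0.7 kg/cm^2. Solutions were made in acetone:methanol (1:1) and brought to concentration with 0.1% Tween 80 in water. Ten second-instar larvae per disc, triplicates, were held at 25° C and 60˜70% R.H., with mortality recorded at 72 hrs.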
Regarding `CCc1ncnc(NCCc2ccc(Oc3ccc(C)cc3)nc2)c1Cl` [III-196], the “Insecticidal activity against diamond back moth (%)” value was 100%.

The same experiment, now with this note: 600 mg/L.
With `CCc1ncnc(NCCc2ccc(Oc3ccc(C)cc3)nc2)c1Cl` [III-196], the “Insecticidal activity against diamond back moth (%)” value came out at 100%.

The experiment is the same for the next values; noted with them: 100 ppm, mortality after 72 hrs.
Take `CCc1ncnc(NCCc2ccc(Oc3ccc(C)cc3)nc2)c1Cl` [III-196]: the “control (test results against diamond back moth)” value was determined as 100%.

Staying with this experiment, now noted: 600 ppm, mortality after 72 hrs.
Regarding `Cc1ncnc(NCCc2ccc(Oc3ccccc3)nc2)c1Cl` [III-1], the “control (test results against diamond back moth)” value worked out at 100%.
Consider `Cc1ccc(Oc2ccc(CCNc3ncnc(C)c3Cl)cn2)cc1` [III-16], for which the “control (test results against diamond back moth)” value is reported as 100%.
Take `CCc1ncnc(NCCc2ccc(Oc3ccc(C)cc3)nc2)c1Cl` [III-196]: the “control (test results against diamond back moth)” value is 100%.

In the next experiment the test system is armyworm. The experiment in a line: bioactivity test against armyworm, airbrush spray. The class given is in vivo. As to conditions: 600 ppm, mortality after 72 h.
Consider `Cc1ncnc(NCCc2ccc(Oc3ccccc3)nc2)c1Cl` [III-1], for which the “control (test results against armyworm)” value is 100%.
As for `Cc1ccc(Oc2ccc(CCNc3ncnc(C)c3Cl)cn2)cc1` [III-16], the “control (test results against armyworm)” value was 100%.
Turning to `CCc1ncnc(NCCc2ccc(Oc3ccc(C)cc3)nc2)c1Cl` [III-196], the “control (test results against armyworm)” value came out at 100%.

A further experiment deals with Green peach aphids (Myzus Persicae Sulzer). The experiment in a line: bioactivity test against green peach aphid, airbrush foliar spray. The class given is in vivo. As to conditions: 100 ppm, death rate after 48 hrs. Put shortly: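 Aphids (15-30 per cabbage leaf disc) on moist filter paper were airbrush-sprayed at 10 psi, 0.5 mL, with compound from acetone:methanol (1:1) diluted in water with 0.1% tween 80. Held at 25±1 C, 60±5% RH; survivors counted after 48 hrs to give death rates.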
`Cc1ccc(Oc2ccc(CCNc3ncnc(C)c3Cl)cn2)cc1` [III-16]: the “control (test results against green peach aphid)” value is 100%.
In the case of `CCc1ncnc(NCCc2ccc(Oc3ccc(C)cc3)nc2)c1Cl` [III-196], the “control (test results against green peach aphid)” value amounted to 100%.

The same experiment, now with this note: 600 ppm, death rate after 48 hrs.
For `Cc1ncnc(NCCc2ccc(Oc3ccccc3)nc2)c1Cl` [III-1], the “control (test results against green peach aphid)” value was found to be 100%.
Take `Cc1ccc(Oc2ccc(CCNc3ncnc(C)c3Cl)cn2)cc1` [III-16]: the “control (test results against green peach aphid)” value is recorded as 100%.
In the case of `CCc1ncnc(NCCc2ccc(Oc3ccc(C)cc3)nc2)c1Cl` [III-196], the “control (test results against green peach aphid)” value is reported as 100%.

A further experiment deals with carmine spider mite. The experiment in a line: bioactivity test against carmine spider mite, airbrush spray. Type of experiment: in vivo. The note with it: 100 mg/L; contrastive test. Put shortly: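 Broadbean seedlings infested with adult mites were sprayed with compound (acetone/methanol stock diluted in 0.1% Tween 80 water) by airbrush at 0.7 kg/cm^2, 0.5 ml. Three replicates were run. Mortality was scored after 72 hrs.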
As to `Cc1ccc(Oc2ccc(CCNc3ncnc(C)c3Cl)cn2)cc1` [III-16], the “Insecticidal activity against carmine spider mite (% )” value turned out to be 100%.

The experiment is the same for the next values; noted with them: 600 mg/L; contrastive test.
With `Cc1ccc(Oc2ccc(CCNc3ncnc(C)c3Cl)cn2)cc1` [III-16], the “Insecticidal activity against carmine spider mite (% )” value was 100%.

The experiment is the same for the next values; noted with them: 100 ppm, mortality after 72 hrs.
As to `Cc1ccc(Oc2ccc(CCNc3ncnc(C)c3Cl)cn2)cc1` [III-16], the “control against carmine spider mite” value turned out to be 100%.

Staying with this experiment, now noted: 600 ppm, mortality after 72 hrs.
For `Cc1ncnc(NCCc2ccc(Oc3ccccc3)nc2)c1Cl` [III-1], the “control against carmine spider mite” value is 100%.
Still for that read-out and setting: in the case of `Cc1ccc(Oc2ccc(CCNc3ncnc(C)c3Cl)cn2)cc1` [III-16] it was 100%.
As to `CCc1ncnc(NCCc2ccc(Oc3ccc(C)cc3)nc2)c1Cl` [III-196], the “control against carmine spider mite” value was found to be 100%.

The next experiment relates to corn rust. As to the kind of experiment: protectant activity in vivo against corn rust. The note with it: 400 ppm.
As for `Cc1ncnc(NCCc2ccc(Oc3ccccc3)nc2)c1Cl` [III-1], the “protectant activity against corn rust in vivo” value stood at 100%.
`Cc1ccc(Oc2ccc(CCNc3ncnc(C)c3Cl)cn2)cc1` [III-16]: the “protectant activity against corn rust in vivo” value came to 100%.
Regarding `CCc1ncnc(NCCc2ccc(Oc3ccc(C)cc3)nc2)c1Cl` [III-196], the “protectant activity against corn rust in vivo” value was 100%.

Another experiment deals with wheat powdery mildew. As to the kind of experiment: protectant activity in vivo against wheat powdery mildew. The note with it: 6.25 mg/L; protectant activity.
`Cc1ncnc(NCCc2ccc(Oc3ccccc3)nc2)c1Cl` [III-1]: the “control effect against wheat powdery mildew (%)” value is recorded as 98%.

The experiment is the same for the next values; noted with them: 25 mg/L; protectant activity.
With `Cc1ncnc(NCCc2ccc(Oc3ccccc3)nc2)c1Cl` [III-1], the “control effect against wheat powdery mildew (%)” value worked out at 98%.

Staying with this experiment, now noted: 100 mg/L; protectant activity.
Consider `Cc1ncnc(NCCc2ccc(Oc3ccccc3)nc2)c1Cl` [III-1], for which the “control effect against wheat powdery mildew (%)” value stood at 98%.

Still in this experiment, the particulars now being: 400 mg/L; protectant activity.
Regarding `Cc1ncnc(NCCc2ccc(Oc3ccccc3)nc2)c1Cl` [III-1], the “control effect against wheat powdery mildew (%)” value was found to be 100%.

The same experiment, now with this note: 400 ppm.
As for `Cc1ncnc(NCCc2ccc(Oc3ccccc3)nc2)c1Cl` [III-1], the “protectant activity against wheat powdery mildew in vivo” value was found to be 100%.
Regarding `Cc1ccc(Oc2ccc(CCNc3ncnc(C)c3Cl)cn2)cc1` [III-16], the “protectant activity against wheat powdery mildew in vivo” value is 100%.
Take `CCc1ncnc(NCCc2ccc(Oc3ccc(C)cc3)nc2)c1Cl` [III-196]: the “protectant activity against wheat powdery mildew in vivo” value is on record as 100%.

In another experiment the test system is cucumber downy mildew. As to the kind of experiment: protectant activity in vivo against cucumber downy mildew. The note with it: 6.25 mg/L; protectant activity.
`Cc1ccc(Oc2ccc(CCNc3ncnc(C)c3Cl)cn2)cc1` [III-16]: the “control effect against cucumber downy mildew (%)” value is 100%.
On the same count and under the same terms, in the case of `CCc1ncnc(NCCc2ccc(Oc3ccc(C)cc3)nc2)c1Cl` [III-196] it was 85%.

The experiment is the same for the next values; noted with them: 12.5 mg/L; protectant activity.
In the case of `Cc1ncnc(NCCc2ccc(Oc3ccccc3)nc2)c1Cl` [III-1], the “control effect against cucumber downy mildew (%)” value came to 100%.
For `Cc1ccc(Oc2ccc(CCNc3ncnc(C)c3Cl)cn2)cc1` [III-16], the “control effect against cucumber downy mildew (%)” value stood at 100%.
Turning to `CCc1ncnc(NCCc2ccc(Oc3ccc(C)cc3)nc2)c1Cl` [III-196], the “control effect against cucumber downy mildew (%)” value turned out to be 85%.

Still in this experiment, the particulars now being: 25 mg/L; protectant activity.
On to `Cc1ncnc(NCCc2ccc(Oc3ccccc3)nc2)c1Cl` [III-1], for which the “control effect against cucumber downy mildew (%)” value was determined as 100%.
With `Cc1ccc(Oc2ccc(CCNc3ncnc(C)c3Cl)cn2)cc1` [III-16], the “control effect against cucumber downy mildew (%)” value turned out to be 100%.
With `CCc1ncnc(NCCc2ccc(Oc3ccc(C)cc3)nc2)c1Cl` [III-196], the “control effect against cucumber downy mildew (%)” value was determined as 100%.

The same experiment, now with this note: 50 mg/L; protectant activity.
Regarding `Cc1ncnc(NCCc2ccc(Oc3ccccc3)nc2)c1Cl` [III-1], the “control effect against cucumber downy mildew (%)” value was 100%.
With `Cc1ccc(Oc2ccc(CCNc3ncnc(C)c3Cl)cn2)cc1` [III-16], the “control effect against cucumber downy mildew (%)” value is reported as 100%.
As for `CCc1ncnc(NCCc2ccc(Oc3ccc(C)cc3)nc2)c1Cl` [III-196], the “control effect against cucumber downy mildew (%)” value was 100%.

Still in this experiment, the particulars now being: 100 mg/L; protectant activity.
As for `Cc1ncnc(NCCc2ccc(Oc3ccccc3)nc2)c1Cl` [III-1], the “control effect against cucumber downy mildew (%)” value worked out at 100%.
Still for that read-out and setting: then `Cc1ccc(Oc2ccc(CCNc3ncnc(C)c3Cl)cn2)cc1` [III-16], with 100%.
Regarding `CCc1ncnc(NCCc2ccc(Oc3ccc(C)cc3)nc2)c1Cl` [III-196], the “control effect against cucumber downy mildew (%)” value was 100%.

Staying with this experiment, now noted: 400 mg/L; protectant activity.
In the case of `Cc1ncnc(NCCc2ccc(Oc3ccccc3)nc2)c1Cl` [III-1], the “control effect against cucumber downy mildew (%)” value was determined as 100%.
As for `Cc1ccc(Oc2ccc(CCNc3ncnc(C)c3Cl)cn2)cc1` [III-16], the “control effect against cucumber downy mildew (%)” value turned out to be 100%.
In the case of `CCc1ncnc(NCCc2ccc(Oc3ccc(C)cc3)nc2)c1Cl` [III-196], the “control effect against cucumber downy mildew (%)” value came out at 100%.

Still in this experiment, the particulars now being: 6.25 ppm.
For the molecule `Cc1ccc(Oc2ccc(CCNc3ncnc(C)c3Cl)cn2)cc1` [III-16], the “protectant activity against cucumber downy mildew in vivo” value was found to be 100%.

Still in this experiment, the particulars now being: 12.5 ppm.
With `Cc1ncnc(NCCc2ccc(Oc3ccccc3)nc2)c1Cl` [III-1], the “protectant activity against cucumber downy mildew in vivo” value stood at 100%.
On to `Cc1ccc(Oc2ccc(CCNc3ncnc(C)c3Cl)cn2)cc1` [III-16], for which the “protectant activity against cucumber downy mildew in vivo” value was 100%.

Staying with this experiment, now noted: 25 ppm.
As for `Cc1ncnc(NCCc2ccc(Oc3ccccc3)nc2)c1Cl` [III-1], the “protectant activity against cucumber downy mildew in vivo” value is given as 100%.
For the molecule `Cc1ccc(Oc2ccc(CCNc3ncnc(C)c3Cl)cn2)cc1` [III-16], the “protectant activity against cucumber downy mildew in vivo” value was 100%.
Take `CCc1ncnc(NCCc2ccc(Oc3ccc(C)cc3)nc2)c1Cl` [III-196]: the “protectant activity against cucumber downy mildew in vivo” value is on record as 100%.

Staying with this experiment, now noted: 50 ppm.
Take `Cc1ncnc(NCCc2ccc(Oc3ccccc3)nc2)c1Cl` [III-1]: the “protectant activity against cucumber downy mildew in vivo” value amounted to 100%.
On to `Cc1ccc(Oc2ccc(CCNc3ncnc(C)c3Cl)cn2)cc1` [III-16], for which the “protectant activity against cucumber downy mildew in vivo” value was determined as 100%.
For `CCc1ncnc(NCCc2ccc(Oc3ccc(C)cc3)nc2)c1Cl` [III-196], the “protectant activity against cucumber downy mildew in vivo” value was 100%.

The experiment is the same for the next values; noted with them: 100 ppm.
With `Cc1ncnc(NCCc2ccc(Oc3ccccc3)nc2)c1Cl` [III-1], the “protectant activity against cucumber downy mildew in vivo” value is given as 100%.
`Cc1ccc(Oc2ccc(CCNc3ncnc(C)c3Cl)cn2)cc1` [III-16]: the “protectant activity against cucumber downy mildew in vivo” value turned out to be 100%.
In the case of `CCc1ncnc(NCCc2ccc(Oc3ccc(C)cc3)nc2)c1Cl` [III-196], the “protectant activity against cucumber downy mildew in vivo” value worked out at 100%.

Still in this experiment, the particulars now being: 400 ppm.
`Cc1ncnc(NCCc2ccc(Oc3ccccc3)nc2)c1Cl` [III-1]: the “protectant activity against cucumber downy mildew in vivo” value amounted to 100%.
For `Cc1ccc(Oc2ccc(CCNc3ncnc(C)c3Cl)cn2)cc1` [III-16], the “protectant activity against cucumber downy mildew in vivo” value is 100%.
Take `CCc1ncnc(NCCc2ccc(Oc3ccc(C)cc3)nc2)c1Cl` [III-196]: the “protectant activity against cucumber downy mildew in vivo” value came to 100%.
